In the NIST ThermoML archive (doi:10.1016/j.tca.2004.11.015):
Numbers after ± are expanded uncertainties.

Assay: xn = mol fraction of the nth substance listed
Conditions: 101.33 kPa, Liquid, Vibrating tube method

NCCO [2-aminoethan-1-ol] + CO
mass density [kg/m3]
Conditions	318.15 K	323.15 K	328.15 K	333.15 K	338.15 K	343.15 K	348.15 K	353.15 K
x1 = 0.012	–	768.02 ± 0.16	763.16 ± 0.16	758.24 ± 0.17	–	–	–	–
x1 = 0.031	–	776.31 ± 0.16	771.48 ± 0.16	766.6 ± 0.16	–	–	–	–
x1 = 0.05	–	784.19 ± 0.16	779.4 ± 0.16	774.56 ± 0.16	769.67 ± 0.16	764.72 ± 0.17	759.71 ± 0.17	754.62 ± 0.17
x1 = 0.1	–	804.01 ± 0.16	799.31 ± 0.16	794.56 ± 0.16	789.76 ± 0.16	784.91 ± 0.17	780 ± 0.17	775.02 ± 0.17
x1 = 0.15	–	822.17 ± 0.16	817.54 ± 0.17	812.87 ± 0.17	808.15 ± 0.17	803.39 ± 0.17	798.56 ± 0.17	793.68 ± 0.18
x1 = 0.2002	–	839.11 ± 0.17	834.54 ± 0.18	829.94 ± 0.18	825.28 ± 0.18	820.58 ± 0.18	815.83 ± 0.18	811.02 ± 0.18
x1 = 0.2501	–	854.48 ± 0.19	849.96 ± 0.19	845.4 ± 0.19	840.8 ± 0.19	836.17 ± 0.19	831.49 ± 0.19	826.76 ± 0.19
x1 = 0.2974	872.55 ± 0.2	868.11 ± 0.2	863.65 ± 0.2	859.14 ± 0.2	854.6 ± 0.2	850 ± 0.21	845.36 ± 0.21	840.69 ± 0.21
x1 = 0.3502	886.63 ± 0.22	882.25 ± 0.22	877.83 ± 0.22	873.37 ± 0.22	868.88 ± 0.22	864.35 ± 0.22	859.77 ± 0.22	855.14 ± 0.22
x1 = 0.4001	898.67 ± 0.24	894.33 ± 0.24	889.95 ± 0.24	885.53 ± 0.24	881.08 ± 0.24	876.6 ± 0.24	872.07 ± 0.24	867.5 ± 0.24
x1 = 0.4427	908.45 ± 0.26	904.14 ± 0.26	899.79 ± 0.26	895.41 ± 0.26	890.99 ± 0.26	886.55 ± 0.26	882.06 ± 0.26	877.53 ± 0.26
x1 = 0.4502	910.28 ± 0.26	905.97 ± 0.26	901.63 ± 0.26	897.26 ± 0.26	892.86 ± 0.26	888.42 ± 0.26	883.94 ± 0.26	879.42 ± 0.26
x1 = 0.5002	920.74 ± 0.28	916.46 ± 0.28	912.15 ± 0.28	907.81 ± 0.28	903.44 ± 0.28	899.04 ± 0.28	894.6 ± 0.28	890.11 ± 0.28
x1 = 0.5501	930.55 ± 0.3	926.3 ± 0.29	922.03 ± 0.29	917.72 ± 0.29	913.38 ± 0.29	909.01 ± 0.29	904.62 ± 0.29	900.18 ± 0.29
x1 = 0.6001	939.84 ± 0.31	935.62 ± 0.31	931.37 ± 0.31	927.1 ± 0.31	922.8 ± 0.31	918.47 ± 0.31	914.1 ± 0.31	909.7 ± 0.31
x1 = 0.6501	948.51 ± 0.33	944.31 ± 0.33	940.1 ± 0.33	935.85 ± 0.33	931.59 ± 0.33	927.29 ± 0.33	922.96 ± 0.33	918.6 ± 0.33
x1 = 0.7005	956.89 ± 0.36	952.72 ± 0.36	948.53 ± 0.35	944.32 ± 0.35	940.08 ± 0.35	935.81 ± 0.35	931.52 ± 0.35	927.19 ± 0.35
x1 = 0.7479	963.92 ± 0.38	959.78 ± 0.38	955.62 ± 0.38	951.43 ± 0.37	947.22 ± 0.37	942.98 ± 0.37	938.72 ± 0.37	934.42 ± 0.37
x1 = 0.8002	971.82 ± 0.4	967.71 ± 0.4	963.57 ± 0.4	959.42 ± 0.4	955.24 ± 0.4	951.03 ± 0.4	946.8 ± 0.4	942.54 ± 0.39
x1 = 0.8502	978.32 ± 0.43	974.23 ± 0.43	970.12 ± 0.43	965.99 ± 0.42	961.84 ± 0.42	957.66 ± 0.42	953.46 ± 0.42	949.23 ± 0.42
x1 = 0.8967	984.55 ± 0.45	980.48 ± 0.45	976.39 ± 0.45	972.29 ± 0.45	968.16 ± 0.45	964.01 ± 0.44	959.83 ± 0.44	955.62 ± 0.44
x1 = 0.9501	990.85 ± 0.48	986.81 ± 0.48	982.75 ± 0.48	978.67 ± 0.47	974.57 ± 0.47	970.45 ± 0.47	966.3 ± 0.47	962.12 ± 0.47
